Laboratory results as given in patent publication US8604030B2, “Fused piperidine compound and pharmaceutical containing same” (Kowa Company, Ltd., priority 2009, dated 2013).

Legend:
[1] = test system: Human hepatocellular carcinoma cell line HepG2; test: EPO production in HepG2 culture supernatant (ELISA), 48 hours at 4% oxygen; type: cell-based; settings: oxygen concentration 4%, 100% = EPO produced in non-stimulated state without compound; for activity at 3 µM: test compound 3 μM, read-out: % of Control (3 μM), produced amount of EPO; for activity at 10 µM: test compound 10 μM, read-out: % of Control (10 μM), produced amount of EPO
Protocol: Human hepatocellular carcinoma cell line HepG2 was inoculated in aliquots of 5×10^4 cells each into each of the wells of a 48-well plate using minimum essential medium (MEM, Sigma) containing 10% fetal bovine serum. On the following day, the medium was replaced with Dulbecco's Modified Eagle Medium (DMEM, Sigma) not containing phenol red but containing 10% fetal bovine serum followed by the addition of a test compound dissolved in DMSO to a final concentration of 3 μM or 10 and bringing to a final media volume of 400 μl per well. After incubating for 48 hours in a CO2 incubator having an oxygen concentration of 4%, the culture supernatant was recovered. The concentration of EPO in the culture supernatant was measured immediately using an ELISA kit (Roche Diagnostics). The procedure used complied with that described in the instructions.
The produced amount of EPO derived from each compound was determined based on a value of 100% for the amount of EPO produced in a non-stimulated state in the absence of addition of a compound (% of control).

[2] = test system: Human proerythroblast cell line K562; test: Hemoglobin production in K562 cells (porphyrin ring fluorescence); type: cell-based; settings: 72 h, test compound 6 μM, 3 days + 3 days after medium replacement, 3×10^5 cells, 100% = hemoglobin produced in non-stimulated state without compound, read-out: % of Control (6 μM), amount of hemoglobin produced
Protocol: Human proerythroblast cell line K562 (acquired from ATCC) was inoculated in aliquots of 1×10^5 cells/mL into each of the wells of a 24-well plate using complete medium (RPMI-1640 medium containing 10% fetal bovine serum), followed by the addition of the test compounds at a final concentration of 6 μM and incubating for 3 days in a CO2 incubator (37° C., 5% CO2). Culturing was continued for an additional 3 days after replacing the medium. The cells were then collected and counted followed by unifying to a cell count of 3×10^5 cells and determining the amount of hemoglobin produced in the cells by measuring the fluorescence of the porphyrin ring. Namely, the cells collected by centrifugation were suspended in 500 μL of 2 M oxalic acid, and boiled for 30 minutes and allowed to cool, followed by measuring fluorescence intensity with a fluorescent microplate reader (Spectra MAX Gemini EM, MDC Japan, Inc.) ([…]). The amount of hemoglobin induced to be produced by each compound was determined based on a value of 100% for the amount of hemoglobin produced in a non-stimulated state in the absence of addition of a compound (% of control).

For `CC(=O)N1c2ncccc2[C@H](Nc2ccc(Cl)cc2)C[C@@H]1C` (relative stereo) [Compound 1, cis-1-acetyl-4-[(4-chlorophenyl)amino]-2-methyl-3,4-dihydro-2H-[1,8]-naphthyridine], the activity at 3 µM [1] was 416% and the activity at 6 µM [2] was 197%.

For `CC(=O)N1c2ccncc2[C@H](Nc2ccc(Cl)cc2)C[C@@H]1C` (relative stereo) [Compound 2, cis-1-acetyl-4-[(4-chlorophenyl)amino]-2-methyl-3,4-dihydro-2H-[1,6]-naphthyridine], the activity at 3 µM [1] was 392% and the activity at 6 µM [2] was 249%.

`CC(=O)N1c2cccnc2[C@H](Nc2ccc(Cl)cc2)C[C@@H]1C` (relative stereo) [Compound 3, cis-1-acetyl-4-[(4-chlorophenyl)amino]-2-methyl-3,4-dihydro-2H-[1,5]-naphthyridine] was tested, and the activity at 3 µM [1] was 153% and the activity at 6 µM [2] was 105%.

`CC(=O)N1c2c(ccc3ccccc23)[C@H](Nc2ccc(Cl)cc2)C[C@@H]1C` (relative stereo) [Compound 5, cis-1-acetyl-4-[(4-chlorophenyl)amino]-2-methyl-1,2,3,4-tetrahydro-benzo[h]quinoline] showed an activity at 10 µM [1] of 183%.

In the case of `CC(=O)N1c2ccc3[nH]ccc3c2[C@H](Nc2ccc(Cl)cc2)C[C@@H]1C` (relative stereo) [Compound 7, cis-6-acetyl-9-(4-chlorophenylamino)-7-methyl-6,7,8,9-tetrahydro-3H-pyrrolo[3,2-f]quinoline], the activity at 10 µM [1] is reported as 137% and the activity at 6 µM [2] is reported as 436%.

`CC(=O)N1c2ccc3oc(=O)ccc3c2[C@H](Nc2ccc(Cl)cc2)C[C@@H]1C` (relative stereo) [Compound 9, cis-7-acetyl-10-(4-chlorophenylamino)-8-methyl-7,8,9,10-tetrahydro-3H-pyrano[3,2-f]-quinolin-3-one] showed an activity at 10 µM [1] of 116% and an activity at 6 µM [2] of 166%.

Work on `CC(=O)N1c2cc3c(cc2[C@H](Nc2ccc(Cl)cc2)C[C@@H]1C)OCO3` (relative stereo) [Compound 10, cis-1-[8-(4-chlorophenylamino)-6-methyl-7,8-dihydro-[1,3]dioxolo[4,5-g]quinolin-5(6H)-yl]ethanone] yielded an activity at 10 µM [1] of 191% and an activity at 6 µM [2] of 520%.

`CC(=O)N1c2ccsc2C(Nc2ccc(Cl)cc2)CC1C` (centres unmarked) [Compound 4, 1-(7-(4-chlorophenylamino)-5-methyl-6,7-dihydrothieno[3,2-b]pyridine-4(5H)-yl)ethanone] was tested, and the activity at 3 µM [1] was 137% and the activity at 6 µM [2] was 135%.

`CC(=O)N1c2ccc3[nH]cnc3c2C(Nc2ccc(Cl)cc2)CC1C` (stereo not drawn) [Compound 8, Cis-1-acetyl-9-[(4-chlorophenyl)amino]-7-methyl-6,7,8,9-tetrahydro-1H-imiazo[4,5-f]quinoline] showed an activity at 10 µM [1] of 104% and an activity at 6 µM [2] of 185%.

`CC(=O)N1c2cc3c(cc2C(Nc2ccc(Cl)cc2)CC1C)OCCO3` (centres unmarked) [Compound 11, 6-acetyl-9-[(4-chlorophenyl)amino]-7-methyl-2,3,6,7,8,9-hexahydro-[1,4]dioxano[2,3-g]quinoline] showed an activity at 10 µM [1] of 190% and an activity at 6 µM [2] of 302%.

`CC(=O)N1c2cc3c(cc2C(Nc2ccc(Cl)cc2)CC1C)OCC(=O)N3` (stereo not drawn) [Compound 12, cis-6-acetyl-9-(4-chlorophenylamino)-7-methyl-6,7,8,9-tetrahydro-2H-[1,4]oxazino[2,3-g]quinolin-3-(4H)-one] gave an activity at 10 µM [1] of 103%.
